# According to patent US10328075B2, “Method of treatment and compounds for use therein” (Baker Heart and Diabetes Institute, priority 2015, dated 2019):
# Like-named read-outs stand apart in the source and are kept apart here.
# Biological target: T1, hFPR1 (Homo sapiens, UniProt P21462)
# T1 construct: expressed in transfected cells
# T1 sequence (P21462 1-350): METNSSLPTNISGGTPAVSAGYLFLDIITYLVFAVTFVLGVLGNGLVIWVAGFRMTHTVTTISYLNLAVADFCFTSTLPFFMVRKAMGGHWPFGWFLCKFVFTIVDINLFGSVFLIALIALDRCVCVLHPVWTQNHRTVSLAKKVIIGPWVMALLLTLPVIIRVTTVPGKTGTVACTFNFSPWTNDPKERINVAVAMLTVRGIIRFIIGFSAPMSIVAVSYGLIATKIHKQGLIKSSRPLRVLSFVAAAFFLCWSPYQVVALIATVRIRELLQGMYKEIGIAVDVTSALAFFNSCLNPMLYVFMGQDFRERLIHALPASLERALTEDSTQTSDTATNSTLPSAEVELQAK
# Assay: ERK1/2 phosphorylation (AlphaScreen SureFire) in hFPR1-FlpIn-CHO cells
# Format: cell-based
# Description: cDNDA construct and generation of stable cell lines: cDNA in pcDNA3.1^+ encoding the human formyl peptide receptors (FPR) subtypes, hFPR1, hFPR2 and hFPR3 was obtained from Invitrogen. The sequences for 3 hFPR receptors were amplified by PCR and cloned into the Gateway entry vector, pDONR202™, using the BP clonase enzyme mix, according to the manufactures' instructions (Invitrogen Inc, Carlsbad, Calif., USA). All hFPR receptors constructs in pDONR201™ were subsequently transfected into the pEF5/FRT/V5/dest vector using the LR clonase enzyme mix (Invitrogen). Receptor constructs (pEF5/FRT/V5/dest) were used to transfect FIp-In CHO cells as described previously (Valant C et al., PNAS, 2014). Cells were selected using 500 μg/mL hydromycin to generate cell lines stably expressing each receptor construct. Cells were maintained and cultured in high glucose DMEM supplemented with 10% FBS, 16 mM HEPES and 500 μg/mL hydromycin at 37° C. under a humidified atmosphere containing 5% CO2.
# In the various assays described below, cells were plated into 96-well transparent cell culture plates at 4×10^4 cells per well, cultured overnight in serum-free media at 37° C. in 5% CO2.
# Measurement of extracellular signal regulated kinase 1 and 2 phosphorylation (pERK1/2): Initial ERK1/2 phosphorylation at Thr202/Tyr204 time-course experiments were performed to determine the time at which ERK1/2 phosphorylation was maximal after stimulation by each agonist. Cells were seeded onto transparent 96-well cell culture plates at 4×10^4 cells per well. After 6 h, cells were washed once with PBS, and then incubated in serum-free DMEM overnight, to allow FBS-stimulated phosphorylated ERK1/2 levels to subside. […] 10% (v/v) FBS was used as a positive control, with vehicle controls also included. The reaction was terminated by removal of study drugs and lysis of cells with 100 μL of SureFire lysis buffer (TGR Biosciences). Cell were lysed in SureFire lysis buffer and transferred to 384-well opaque proxiplates. Under low-light conditions, a 1:120 (v:v) dilution of AlphaScreen beads (both acceptor and donor):Surefire reaction buffer was prepared, which was mixed with the activation buffer in a ratio of 6:1 (v:v), respectively. Plates were incubated in the dark at 37° C. for 1 h before the fluorescence signal was measured by a Fusion-α plate reader (PerkinElmer Life and Analytical Sciences, Foster city, CA, USA) with standard AlphaScreen settings. Data were normalized to the maximal response elicited by 10% (v/v) FBS at the same time point.
# Receptor mediated pERK1/2 levels were determined using the AlphaScreen™ ERK1/2 SureFire™ kit, as described previously (Keov, P et al., 2014). For all experiments, 10% FBS was used as internal positive control to stimulate pERK1/2, and which the maximum responses were used for normalization of data, whilst vehicle was used as negative control.
# Data analysis: All data were analysed using GraphPad Prism 6.0 (GraphPad Software, San Deigo, Calif., USA). Where appropriate, concentration-response curves were fitted to derive the maximal agonist effect (Emax), and the ligand potency estimate (pEC50), where Emax is the maximal possible response of the system (not the agonist), basal is the basal level of response in the absence of agonist, and pEC50 is the negative logarithm of the agonist concentration that gives a response halfway between Emax and basal.
# In the present study, FIp-IN CHO cells and Gateway plasmid were obtained from Invitrogen Inc (Carlsbad, Calif., USA). The sequences for all 3 known human FPRs (hFPR1, hFPR2 and hFPR3) were amplified by PCR and cloned into the Gateway entry vector, pDONR202TM, using the BP clonase enzyme mix, according to the manufacturers' instructions. The hFPR pDONR201TM constructs were subsequently transfected into the pEF5/FRT/V5/dest vector using the LR clonase enzyme mix (Invitrogen).
# [1] = Table 9, read-out: potency (pEC50) pERK1/2, hFPR1-FlpInCHO cells in vitro (converted)
SMILES,EC50 [1],"ERK Rmax (Table 10, receptor not given)","EC50 (Table 10, receptor not given, values of 10394/10396 equal the hFPR1 values of Table 9, read-out: ERK pEC50 (converted))","Time of maximal ERK1/2 phosphorylation in hFPR1-CHO cells (10 μM, pilot timecourse)","Emax (Table 2, percentage of ERK1/2 phosphorylation elicited by 10% FBS, read-out: Emax (%), ERK1/2 phosphorylation, hFPR1-Flpln-CHO)","EC50 (Table 2, read-out: pEC50, ERK1/2 phosphorylation, hFPR1-Flpln-CHO (converted))","ΔLog(τ/KA), ERK1/2 phosphorylation, hFPR1-Flpln-CHO (Table 8, normalized transduction coefficient, reference agonist Cmpd43)","Emax (Table 8, percent of response elicited by 10% FBS, read-out: Emax, ERK1/2 phosphorylation, hFPR1-Flpln-CHO)","EC50 (Table 8, read-out: pEC50, ERK1/2 phosphorylation, hFPR1-Flpln-CHO (converted))","Log(τ/KA), ERK1/2 phosphorylation, hFPR1-Flpln-CHO (Table 8, transduction coefficient)"
Cc1cc(Cc2cccnc2)c(=O)n(CC(=O)Nc2ccc(Cl)cc2)n1 [MIPS-0010396],676 nM,76 ± 2,676 nM,–,–,–,–,–,–,–
CC(C)C1C(NC(=O)Nc2ccc(Cl)cc2)C(=O)N(c2ccccc2)N1C (centres unmarked) [BIDI-002],67.6 nM,–,–,5 min,61 ± 9%,67.6 nM,0.0,61 ± 9%,63.1 nM,7.3 ± 0.1
